Reference: patent US11072632B2, “Inhibitors of 17β-HSD1, 17β-HSD3 and 17β-HSD10” (UNIVERSITÉ LAVAL, priority 2011, dated 2021)
Read-outs that look alike come from different tables or passages of the source.

Tests used:
17β-HSD3 [1] = molecular target: T1, 17β-HSD3 (Homo sapiens, UniProt P37058); assay: Inhibition of 17β-HSD3 in homogenated HEK-293 cells; format: biochemical
T1 construct: expressed in transfected cells; host or cells: HEK-293 (homogenate)
T1 sequence (P37058 1-310): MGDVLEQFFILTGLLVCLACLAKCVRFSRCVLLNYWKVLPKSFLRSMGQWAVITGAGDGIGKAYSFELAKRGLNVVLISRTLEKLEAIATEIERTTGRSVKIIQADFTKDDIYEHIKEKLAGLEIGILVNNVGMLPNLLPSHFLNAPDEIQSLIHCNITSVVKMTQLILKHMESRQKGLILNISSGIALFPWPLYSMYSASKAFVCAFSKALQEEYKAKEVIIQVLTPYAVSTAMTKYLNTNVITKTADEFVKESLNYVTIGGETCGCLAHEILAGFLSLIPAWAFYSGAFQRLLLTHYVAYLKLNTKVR

17β-HSD3 [2] = molecular target: T1, 17β-HSD3; assay: Inhibition of 17β-HSD3 in intact HEK-293 cells; format: cell-based; details: for inhibition at 0.1 µM / inhibition at 1 µM: HEK293, 1 h
[3] = read-out: Homo (%) (0.01 μM), Table 4
[4] = read-out: Homo (%) (0.1 μM), Table 4
[5] = read-out: Intact cells (%) (0.1 μM), Table 4
[6] = Table 2 (17β-HSD3), [14C]-Δ4-dione 50 nM into [14C]-T, read-out: Homo (%) (0.01 μM)
[7] = read-out: Homo (%) (1.0 μM), Table 4, 1.0 μM

## C[C@]12CC[C@@]3(C[C@@H]1CC[C@@H]1[C@@H]2CC[C@]2(C)C(=O)CC[C@@H]12)CN(Cc1ccc(C(F)(F)F)cc1)C(=O)O3 [Compound 17d, (3R,5S,8R,9S,10S,13S,14S)-10,13-dimethyl-3′-[4-(trifluoromethyl)benzyl]tetradecahydro-2′H-spiro[cyclopenta[α]phenanthrene-3,5′-[1,3]oxazolidine]-2′,17(2H)-dione]
17β-HSD3 [1]; [3]
  inhibition at 0.01 µM: 25%
17β-HSD3 [1]; [4]
  inhibition at 0.1 µM: 80%
17β-HSD3 [2]; [5]
  inhibition at 0.1 µM: 43%

## C[C@]12CC[C@](O)(CN3CCC(N4CCCCC4)CC3)C[C@@H]1CC[C@@H]1[C@@H]2CC[C@]2(C)C(=O)CC[C@@H]12 [Compound 7g, (3α,5α)-3-(1,4′-bipiperidin-1′-ylmethyl)-3-hydroxyandrostan-17-one]
17β-HSD3 [1]; Table 2 (17β-HSD3), read-out: Homo (%) (0.1 μM)
  inhibition at 0.1 µM: 4%
17β-HSD3 [1]; Table 2 (17β-HSD3), 1 μM, read-out: Homo (%) (1 μM)
  inhibition at 1 µM: 69%
17β-HSD3 [1]; [6]
  inhibition at 0.01 µM: 0%
17β-HSD3 [2]; Table 2 (17β-HSD3), 1 μM, read-out: Intact cells (%) (1 μM)
  inhibition at 1 µM: 20%

## CC1CN(CC2(O)CCC3(C)C(CCC4C5CCC(=O)C5(C)CCC43)C2)C(C)CN1Cc1ccc(C(F)(F)F)cc1C(F)(F)F (stereo not drawn) [Compound 11i, (3α,5α)-3-({(2ξ,5ξ)-4-[2,4-bis(trifluoromethyl)benzyl]-2,5-dimethylpiperazin-1-yl}methyl)-3-hydroxyandrostan-17-one]
17β-HSD3 [1]; Table 3
  Homo (%) (0.01 μM): 15%
  Homo (%) (0.1 μM): 71%
17β-HSD3 [2]; Table 3
  Intact cells (%) (0.1 μM): 21%

## C[C@]12CC[C@](O)(CN3CCN(Cc4ccc(C(F)(F)F)cc4C(F)(F)F)CC3)C[C@@H]1CC[C@@H]1[C@@H]2CC[C@]2(C)C(=O)CC[C@@H]12 [Compound 10i, (3α,5α)-3-({4-[2,4-bis(trifluoromethyl)benzyl]piperazin-1-yl}methyl)-3-hydroxyandrostan-17-one]
17β-HSD3 [1]; Table 3
  Homo (%) (0.01 μM): 22%
  Homo (%) (0.1 μM): 75%
17β-HSD3 [2]; Table 3
  Intact cells (%) (0.1 μM): 16%

## CCCN(CCN1C[C@]2(CC[C@@]3(C)[C@@H](CC[C@@H]4[C@@H]3CC[C@]3(C)C(=O)CC[C@@H]43)C2)OC1=O)C(=O)CC [Compound 23g, N-{(3R,5S,8R,9S,10S,13S,14S)-10,13-dimethyl-2′,17-dioxohexadecahydro-3′H-spiro[cyclopenta[α]phenanthrene-3,5′-[1,3]oxazolidine-3′-yl]ethyl}-N-propylpropanamide]
17β-HSD3 [1]; [3]
  inhibition at 0.01 µM: 0%
17β-HSD3 [1]; [4]
  inhibition at 0.1 µM: 35%
17β-HSD3 [1]; [7]
  inhibition at 1 µM: 80%
17β-HSD3 [2]; [5]
  inhibition at 0.1 µM: 25%

## CC1CN(C[C@@]2(O)CC[C@@]3(C)[C@@H](CC[C@@H]4[C@@H]3CC[C@]3(C)C(=O)CC[C@@H]43)C2)C(C)CN1Cc1cc(C(F)(F)F)cc(C(F)(F)F)c1 (stereo partly drawn) [Compound 11j, (3α,5α)-3-({(2ξ,5ξ)-4-[3,5-bis(trifluoromethyl)benzyl]-2,5-dimethylpiperazin-1-yl}methyl)-3-hydroxyandrostan-17-one]
17β-HSD3 [1]; Table 3
  Homo (%) (0.01 μM): 25%
  Homo (%) (0.1 μM): 74%
17β-HSD3 [2]; Table 3
  Intact cells (%) (0.1 μM): 16%

## Cc1ccc(CN2C[C@]3(CC[C@@]4(C)[C@@H](CC[C@@H]5[C@@H]4CC[C@]4(C)C(=O)C(C)(C)C[C@@H]54)C3)OC2=O)cc1 [Compound 18, (3R,5S,8R,9S,10S,13S,14S)-10,13,16,16-tetramethyl-3′-(4-methylbenzyl)tetrahydrodecahydro-2′H-spiro[cyclopenta[α]phenanthrene-3,5′-[1,3]oxazolidine]-2′,17(2H)-dione]
17β-HSD3 [1]; [3]
  inhibition at 0.01 µM: 2%
17β-HSD3 [1]; [4]
  inhibition at 0.1 µM: 22%
17β-HSD3 [1]; [7]
  inhibition at 1 µM: 74%
17β-HSD3 [2]; [5]
  inhibition at 0.1 µM: 18%

## C[C@]12CC[C@@]3(C[C@@H]1CC[C@@H]1[C@@H]2CC[C@]2(C)C(=O)CC[C@@H]12)CN(CCC(CN1CCOCC1)OC(=O)CCC1CCCC1)C(=O)O3 (stereo partly drawn) [Compound 4, reference compound]
17β-HSD3 [1]; [3]
  inhibition at 0.01 µM: 2%
17β-HSD3 [1]; [4]
  inhibition at 0.1 µM: 79%
17β-HSD3 [1]; [7]
  inhibition at 1 µM: 94%
17β-HSD3 [2]; [5]
  inhibition at 0.1 µM: 49%

## C[C@]12CC[C@](O)(CN3CCN(Cc4ccc(C(F)(F)F)cc4)CC3)C[C@@H]1CC[C@@H]1[C@@H]2CC[C@]2(C)C(=O)CC[C@@H]12 [Compound 10c, (3α,5α)-3-hydroxy-3-({4-[4-(trifluoromethyl)benzyl]piperazin-1-yl}methyl)androstan-17-one]
17β-HSD3 [1]; Table 3, read-out: Homo (%) (0.01 μM)
  inhibition at 0.01 µM: 14%
17β-HSD3 [1]; Table 3, read-out: Homo (%) (0.1 μM)
  inhibition at 0.1 µM: 81%
17β-HSD3 [2]; Table 3, read-out: Intact cells (%) (0.1 μM)
  inhibition at 0.1 µM: 33%

## CC1CN(C(=O)c2ccccc2)C(C)CN1C[C@@]1(O)CC[C@@]2(C)[C@@H](CC[C@@H]3[C@@H]2CC[C@]2(C)C(=O)CC[C@@H]32)C1 (stereo partly drawn) [Compound 13a, (3α,5α)-3-{[(2ξ,5ξ)-2,5-dimethyl-4-(phenylcarbonyl)piperazin-1-yl]methyl}-3-hydroxyandrostan-17-one]
17β-HSD3 [1]; Table 3
  Homo (%) (0.01 μM): 24%
  Homo (%) (0.1 μM): 87%
17β-HSD3 [2]; Table 3
  Intact cells (%) (0.1 μM): 78%

## Cc1cccc(OCCN2C[C@]3(CC[C@@]4(C)[C@@H](CC[C@@H]5[C@@H]4CC[C@]4(C)C(=O)CC[C@@H]54)C3)OC2=O)c1 [Compound 23a, (3R,5S,8R,9S,10S,13S,14S)-10,13-dimethyl-3′-[2-(3-methylphenoxy)ethyl]tetrahydrodecahydro-2′H-spiro[cyclopenta[α]phenanthrene-3,5′-[1,3]oxazolidine]-2′,17(2H)-dione]
17β-HSD3 [1]; [3]
  inhibition at 0.01 µM: 13%
17β-HSD3 [1]; [7]
  inhibition at 1 µM: 95%
17β-HSD3 [2]; [5]
  inhibition at 0.1 µM: 40%

## C[C@]12CC[C@@]3(C[C@@H]1CC[C@@H]1[C@@H]2CC[C@]2(C)C(=O)CC[C@@H]12)CN(Cc1cc(C(F)(F)F)cc(C(F)(F)F)c1)C(=O)O3 [Compound 17h, (3R,5S,8R,9S,10S,13S,14)-3′-[3,5-bis(trifluoromethyl)benzyl]-10,13-dimethyletradecahydro-2′H-spiro[cyclopenta[α]phenanthrene-3,5′-[1,3]oxazolidine]-2′,17(2H)-dione]
17β-HSD3 [1]; [3]
  inhibition at 0.01 µM: 12%
17β-HSD3 [1]; [4]
  inhibition at 0.1 µM: 66%
17β-HSD3 [2]; [5]
  inhibition at 0.1 µM: 35%

## COc1ccc(CN2C[C@]3(CC[C@@]4(C)[C@@H](CC[C@@H]5[C@@H]4CC[C@]4(C)C(=O)CC[C@@H]54)C3)OC2=O)cc1 [Compound 17c, (3R,5S,8R,9S,10S,13S,14S)-3′-(4-methoxybenzyl)-10,13-dimethyltetradecahydro-2′H-spiro[cyclopenta[α]phenanthrene-3,5′-[1,3]oxazolidine]-2′,17(2H)-dione]
17β-HSD3 [1]; [3]
  inhibition at 0.01 µM: 5%
17β-HSD3 [1]; [4]
  inhibition at 0.1 µM: 84%
17β-HSD3 [1]; [7]
  inhibition at 1 µM: 93%
17β-HSD3 [2]; [5]
  inhibition at 0.1 µM: 43%

## C[C@]12CC[C@@]3(C[C@@H]1CC[C@@H]1[C@@H]2CC[C@]2(C)C(=O)CC[C@@H]12)CN(Cc1ccccc1C(F)(F)F)C(=O)O3 [Compound 17f, (3R,5S,8R,9S,10S,13S,14S)-10,13-dimethyl-3′-[2-(trifluoromethyl)benzyl]tetradecahydro-2′H-spiro[cyclopenta[α]phenanthrene-3,5′-[1,3]oxazolidine]-2′,17(2H)-dione]
17β-HSD3 [1]; [3]
  inhibition at 0.01 µM: 17%
17β-HSD3 [1]; [4]
  inhibition at 0.1 µM: 81%
17β-HSD3 [2]; [5]
  inhibition at 0.1 µM: 35%

## C[C@]12CC[C@](O)(CN3CCC(Cc4ccccc4)CC3)C[C@@H]1CC[C@@H]1[C@@H]2CC[C@]2(C)C(=O)CC[C@@H]12 [Compound 7f, (3α,5α)-3-[(4-benzylpiperidin-1-yl)methyl]-3-hydroxyandrostan-17-one]
17β-HSD3 [1]; [6]
  inhibition at 0.01 µM: 40%
17β-HSD3 [1]; read-out: Homo (%) (0.1 μM), Table 2 (17β-HSD3)
  inhibition at 0.1 µM: 82%
17β-HSD3 [1]; read-out: Homo (%) (1 μM), Table 2 (17β-HSD3), 1 μM
  inhibition at 1 µM: 90%
17β-HSD3 [2]; read-out: Intact cells (%) (1 μM), Table 2 (17β-HSD3), 1 μM
  inhibition at 1 µM: 52%

## C[C@]12CC[C@](O)(CN3CCN(C(=O)C4CCCCC4)CC3)C[C@@H]1CC[C@@H]1[C@@H]2CC[C@]2(C)C(=O)CC[C@@H]12 [Compound 12b, (3α,5α)-3-{[4-(cyclohexylcarbonyl)piperazin-1-yl]methyl}-3-hydroxyandrostan-17-one]
17β-HSD3 [1]; Table 3
  Homo (%) (0.01 μM): 19%
  Homo (%) (0.1 μM): 75%
17β-HSD3 [2]; Table 3, footnote b, 1 μM
  Intact cells (%), tested at 1 μM: N/A (70)^b %

## C[C@]12CC[C@](O)(CN3CCN(Cc4cc(C(F)(F)F)cc(C(F)(F)F)c4)CC3)C[C@@H]1CC[C@@H]1[C@@H]2CC[C@]2(C)C(=O)CC[C@@H]12 [Compound 10j, (3α,5α)-3-({4-[3,5-bis(trifluoromethyl)benzyl]piperazin-1-yl}methyl)-3-hydroxyandrostan-17-one]
17β-HSD3 [1]; Table 3
  Homo (%) (0.01 μM): 25%
  Homo (%) (0.1 μM): 83%
17β-HSD3 [2]; Table 3
  Intact cells (%) (0.1 μM): 25%

## C[C@]12CC[C@@]3(C[C@@H]1CC[C@@H]1[C@@H]2CC[C@]2(C)C(=O)CC[C@@H]12)CN(Cc1ccc(C(F)(F)F)nc1)C(=O)O3 [Compound 17e]
17β-HSD3 [1]; [3]
  inhibition at 0.01 µM: 3%
17β-HSD3 [1]; [4]
  inhibition at 0.1 µM: 65%
17β-HSD3 [2]; [5]
  inhibition at 0.1 µM: 36%

## C[C@]12CC[C@](O)(CN3CCN(Cc4cc(C(F)(F)F)ccc4C(F)(F)F)CC3)C[C@@H]1CC[C@@H]1[C@@H]2CC[C@]2(C)C(=O)CC[C@@H]12 [Compound 10h, (3α,5α)-3-({4-[2,5-bis(trifluoromethyl)benzyl]piperazin-1-yl}methyl)-3-hydroxyandrostan-17-one]
17β-HSD3 [1]; Table 3
  Homo (%) (0.01 μM): 18%
  Homo (%) (0.1 μM): 85%
17β-HSD3 [2]; Table 3
  Intact cells (%) (0.1 μM): 12%
